Data reported in ChEMBL document CHEMBL1926626, “Design and synthesis of benzo[c,d]indolone-pyrrolobenzodiazepine conjugates as potential anticancer agents” (Bioorg Med Chem, 2012).
Calls of active or inactive are those of the source. The rule behind the calls is not given here.

Tests used:
[1] = system: A-431; test: Anticancer activity against human A431 cells after 48 hrs by MTT assay; format: functional, cell-based; settings: A-431, 48 h
[2] = system: A549; test: Anticancer activity against human A549 cells after 48 hrs by MTT assay; settings: A549, 48 h
[3] = system: HEK293; test: Cytotoxicity activity against human HEK293 cells after 48 hrs by MTT assay; format: cell-based; settings: hek293, 48 h
[4] = system: COLO 205; test: Anticancer activity against human COLO205 cells after 48 hrs by MTT assay; format: functional, cell-based; settings: COLO 205, 48 h
[5] = system: PC-3; test: Anticancer activity against human PC3 cells after 48 hrs by MTT assay; format: functional, cell-based; settings: PC-3, 48 h
[6] = system: Nucleic Acid; test: Binding affinity to calf thymus DNA assessed as change in melting temperature at compound:DNA molar ratio of 1:5 after 18 hrs at 37 degC by thermal denaturation assay (RVb = 0.3 to 3.1 degC); format: nucleic-acid assay; settings: Bos taurus
[7] = system: A549; test: Induction of apoptosis in human A549 cells assessed as viable cells at 1 uM after 48 hrs by annexin V-FITC and propidium iodide staining method (RVb = 99.93 %); format: functional; settings: A549, 48 h, read-out: Activity
[8] = system: A549; test: Induction of cell cycle arrest in human A549 cells assessed as accumulation at G2 phase at 1 uM after 48 hrs by propidium iodide staining-based flow cytometry (reference value: 9.23 %); format: functional
[9] = system: A549; test: Induction of apoptosis in human A549 cells assessed as late apoptotic cells at 1 uM after 48 hrs by annexin V-FITC and propidium iodide staining method (RVb = 0.02 %); format: functional
[10] = system: A549; test: Induction of apoptosis in human A549 cells assessed as nuclear condensation at 2 uM after 48 hrs by Hoechst 33258 staining-based fluorescence microscopy relative to control; format: functional, cell-based
[11] = system: A549; test: Induction of cell cycle arrest in human A549 cells assessed as accumulation at G1 phase at 1 uM after 48 hrs by propidium iodide staining-based flow cytometry (reference value: 76.31 %); format: functional
[12] = system: A549; test: Induction of cell cycle arrest in human A549 cells assessed as accumulation at Sub G1 phase at 1 uM after 48 hrs by propidium iodide staining-based flow cytometry (reference value: 0.67 %); format: functional
[13] = system: A549; test: Induction of apoptosis in human A549 cells assessed as necrotic cells at 1 uM after 48 hrs by annexin V-FITC and propidium iodide staining method (RVb = 0.04 %); format: functional
[14] = system: A549; test: Induction of cell cycle arrest in human A549 cells assessed as accumulation at S phase at 1 uM after 48 hrs by propidium iodide staining-based flow cytometry (reference value: 13.31 %); format: functional
[15] = system: A549; test: Induction of apoptosis in human A549 cells assessed as early apoptotic cells at 1 uM after 48 hrs by annexin V-FITC and propidium iodide staining method (RVb = 0.01 %); format: functional
[16] = system: A549; test: Induction of apoptosis in human A549 cells assessed as oligoneucleosomal DNA fragmentation at 1 to 2 uM after 48 hrs by agarose gel electrophoresis technique; format: functional, cell-based
[17] = system: A549; test: Induction of apoptosis in human A549 cells assessed as early apoptotic cells at 2 uM after 48 hrs by annexin V-FITC and propidium iodide staining method (RVb = 0.01 %); format: functional
[18] = system: A549; test: Induction of apoptosis in human A549 cells assessed as activation of caspase-3 activity at 1 to 2 uM after 48 hrs by ELISA relative to control; format: functional
[19] = system: A549; test: Induction of cell cycle arrest in human A549 cells assessed as accumulation at G2 phase at 2 uM after 48 hrs by propidium iodide staining-based flow cytometry (reference value: 9.23 %); format: functional
[20] = system: A549; test: Induction of apoptosis in human A549 cells assessed as necrotic cells at 2 uM after 48 hrs by annexin V-FITC and propidium iodide staining method (RVb = 0.04 %); format: functional
[21] = system: A549; test: Induction of cell cycle arrest in human A549 cells assessed as decrease in accumulation at G0/G1 phase after 48 hrs by propidium iodide staining-based flow cytometry; format: functional
[22] = system: A549; test: Induction of cell cycle arrest in human A549 cells assessed as accumulation at subG1 phase after 48 hrs by propidium iodide staining-based flow cytometry; format: functional
[23] = system: A549; test: Induction of cell cycle arrest in human A549 cells assessed as accumulation at Sub G1 phase at 2 uM after 48 hrs by propidium iodide staining-based flow cytometry (reference value: 0.67 %); format: functional
[24] = system: A549; test: Induction of cell cycle arrest in human A549 cells assessed as accumulation at S phase at 2 uM after 48 hrs by propidium iodide staining-based flow cytometry (reference value: 13.31 %); format: functional
[25] = system: A549; test: Induction of cell cycle arrest in human A549 cells assessed as accumulation at G1 phase at 2 uM after 48 hrs by propidium iodide staining-based flow cytometry (reference value: 76.31 %); format: functional
[26] = system: A549; test: Induction of apoptosis in human A549 cells assessed as late apoptotic cells at 2 uM after 48 hrs by annexin V-FITC and propidium iodide staining method (RVb = 0.02 %); format: functional
[27] = system: A549; test: Induction of apoptosis in human A549 cells assessed as viable cells at 2 uM after 48 hrs by annexin V-FITC and propidium iodide staining method (RVb = 99.93 %); format: functional; settings: A549, 48 h, read-out: Activity

In the case of `COc1cc2c(cc1OCCCCN1c3cccc4cccc(c34)S1(=O)=O)N=C[C@@H]1CCCN1C2=O`, the IC50 [1] is reported as 3.34 µM, the IC50 [2] is reported as 19.6 µM and the Activity [3] is reported as “Non-toxic”. The IC50 [4] was 3.71 µM, the IC50 [5] was 14.9 µM and the ΔTm [6] was 3.9 °C.

In the case of `COc1cc2c(cc1OCCCn1c(=C(C#N)C#N)c3cccc4cccc1c43)N=C[C@@H]1CCCN1C2=O`, the IC50 [1] is reported as 4.67 µM, the IC50 [2] is reported as 4.86 µM and the Activity [3] is reported as “Non-toxic”. The IC50 [4] was 6.1 µM, the IC50 [5] was 17.9 µM and the ΔTm [6] was 3.4 °C.

For `COc1cccc2c1C(=O)c1c(O)c3c(c(O)c1C2=O)C[C@@](O)(C(=O)CO)C[C@@H]3O[C@H]1C[C@H](N)[C@H](O)[C@H](C)O1` [DOXORUBICIN], the IC50 [1] was 0.03 µM, the IC50 [4] was 1.69 µM and the IC50 [5] was 2.51 µM.

In the case of `COc1cc2c(cc1OCCCCCN1C(=O)c3cccc4cccc1c34)N=C[C@@H]1CCCN1C2=O`, the IC50 [1] is reported as 3.71 µM, the IC50 [2] is reported as 21.9 µM and the Activity [3] is reported as “Non-toxic”. It also gave an IC50 [4] of 9.76 µM, an IC50 [5] of 15.5 µM and a ΔTm [6] of 5.2 °C.

`COc1cc2c(cc1OCCCCCN1c3cccc4cccc(c34)S1(=O)=O)N=C[C@@H]1CCCN1C2=O` was tested, and the IC50 [1] was 4.67 µM, the IC50 [2] was 14.4 µM and the Activity [3] was “Non-toxic”. The IC50 [4] was 15.1 µM, the IC50 [5] was 9.7 µM and the ΔTm [6] was 5.6 °C.

With `COc1cc2c(cc1OCCCN1c3cccc4cccc(c34)S1(=O)=O)N=C[C@@H]1CCCN1C2=O` the IC50 [1] was 9.56 µM, the IC50 [2] was 10 µM and the Activity [3] was “Non-toxic”. For the same compound, the IC50 [4] was 7.66 µM, the IC50 [5] was 9.8 µM and the ΔTm [6] was 4.9 °C.

With `COc1cc2c(cc1O)N=C[C@@H]1CCCN1C2=O` the viability at 1 µM [7] was 41.2%, the IC50 [1] was 1.65 µM and the Activity [8] was 8.57%. The IC50 [2] was 1.11 µM, the Activity [9] was 17.73% and the Activity [10] was “Active”. For the same compound, the Activity [11] was 40.78%, the Activity [12] was 10.15% and the IC50 [4] was 0.86 µM. The Activity [13] was 1.91%, the Activity [14] was 38.93% and the IC50 [5] was 1.19 µM. For the same compound, the ΔTm [6] was 0.7 °C and the Activity [15] was 39.1%.

For `COc1cc2c(cc1OCCCCCCN1c3cccc4cccc(c34)S1(=O)=O)N=C[C@@H]1CCCN1C2=O`, the viability at 1 µM [7] was 40.6%, the Activity [16] was “Active” and the Activity [17] was 26.07%. The “fold change (FC)” value [18] was 4, the Activity [19] was 0.37% and the IC50 [1] was 1.72 µM. The Activity [20] was 2.77%, the Activity [8] was 3.75% and the Activity [21] was “Dose-dependent effect”. For the same compound, the IC50 [2] was 1.05 µM, the Activity [9] was 24.94% and the Activity [22] was “Dose-dependent effect”. For the same compound, the Activity [10] was “Active”, the Activity [3] was “Non-toxic” and the Activity [23] was 66.94%. The Activity [24] was 9.93%, the Activity [11] was 36.77% and the Activity [25] was 20.48%. It also gave an Activity [12] of 42.83%, an IC50 [4] of 1.21 µM and an Activity [13] of 1.93%. For the same compound, the Activity [26] was 42.4%, the Activity [14] was 15.34% and the IC50 [5] was 1.52 µM. The viability at 2 µM [27] was 28.8%, the ΔTm [6] was 7.6 °C and the Activity [15] was 32.55%.

With `COc1cc2c(cc1OCCCCCn1c(=C(C#N)C#N)c3cccc4cccc1c43)N=C[C@@H]1CCCN1C2=O` the IC50 [1] was 4.46 µM, the IC50 [2] was 5.86 µM and the Activity [3] was “Non-toxic”. It also gave an IC50 [4] of 25.9 µM, an IC50 [5] of 36.5 µM and a ΔTm [6] of 2.8 °C.

`COc1cc2c(cc1OCCCCCCN1C(=O)c3cccc4cccc1c34)N=C[C@@H]1CCCN1C2=O` was tested, and the IC50 [1] was 3.31 µM, the IC50 [2] was 32.7 µM and the Activity [3] was “Non-toxic”. For the same compound, the IC50 [4] was 14.3 µM, the IC50 [5] was 4.89 µM and the ΔTm [6] was 2.1 °C.

With `COc1cc2c(cc1OCCCCn1c(=C(C#N)C#N)c3cccc4cccc1c43)N=C[C@@H]1CCCN1C2=O` the IC50 [1] was 2.5 µM, the IC50 [2] was 25.5 µM and the Activity [3] was “Non-toxic”. The IC50 [4] was 2.95 µM, the IC50 [5] was 14.8 µM and the ΔTm [6] was 2.7 °C.

In the case of `COc1cc2c(cc1OCCCCN1C(=O)c3cccc4cccc1c34)N=C[C@@H]1CCCN1C2=O`, the IC50 [1] is reported as 1.34 µM, the IC50 [2] is reported as 9.8 µM and the Activity [3] is reported as “Non-toxic”. It also gave an IC50 [4] of 3.31 µM, an IC50 [5] of 3.23 µM and a ΔTm [6] of 4 °C.

With `COc1cc2c(cc1OCCCN1C(=O)c3cccc4cccc1c34)N=C[C@@H]1CCCN1C2=O` the IC50 [1] was 3.04 µM, the IC50 [2] was 13.8 µM and the Activity [3] was “Non-toxic”. It also gave an IC50 [4] of 8.65 µM, an IC50 [5] of 7.67 µM and a ΔTm [6] of 3.2 °C.

With `COc1cc2c(cc1OCCCCCCn1c(=C(C#N)C#N)c3cccc4cccc1c43)N=C[C@@H]1CCCN1C2=O` the IC50 [1] was 1.25 µM, the IC50 [2] was 18.9 µM and the Activity [3] was “Non-toxic”. The IC50 [4] was 16.7 µM, the IC50 [5] was 19.3 µM and the ΔTm [6] was 2 °C.
